Data reported in patent publication US20150005347A1, “NITROGEN-CONTAINING HETEROCYCLIC DERIVATIVE HAVING 2-IMINO GROUP AND PEST CONTROL AGENT INCLUDING THE SAME” (MEIJI SEIKA PHARMA CO., LTD., priority 2012, published 2015).

Experiments:
Type in all cases: in vivo
Aphis gossypii = assay: Pest control test of Aphis gossypii, cucumber leaf disk foliar spray; details: Aphis gossypii, 72 h, first instar larvae, three days after release; for mortality at 100 ppm: foliar treatment at 100 ppm; for mortality at 100 ppm / mortality at 20 ppm: read-out: mortality of larvae; for mortality at 20 ppm: foliar treatment at 20 ppm
Description: Test Example 3 Pest Control Test of Aphis gossypii
(§1) A leaf disk having a diameter of 2.0 cm was cut out from a cucumber in pot culture, and a drug solution of the compound of the present invention at a predetermined concentration, which had been prepared so as to be a 50% acetone water (0.05% Tween20 available), was sprayed to the leaf disk. After an air drying process, first instar larvae were released thereto. Thereafter, the larvae were left to stand in a thermostatic chamber (16 hours of light period-8 hours of dark period) at 25° C. […] Test in duplicate.
(§2) Mortality of larvae(%)={number of dead larvae/(number of survived larvae+number of dead larvae)}×100

[1] = system: imidacloprid susceptible populations of Nilaparvata lugens; assay: Soil irrigation test, imidacloprid susceptible populations of Nilaparvata lugens
Description: (§3) A rice seedling in pot culture was subjected to soil irrigation treatment with a drug solution of the compound of the present invention at a predetermined concentration, which had been prepared so as to be a 10% acetone water. […] Thereafter, the larvae were left to stand in a thermostatic chamber (16 hours of light period-8 hours of dark period) at 25° C. […] The test was performed in duplicate.
as §2
Further, for comparison, the test against some population of Nilaparvata lugens which is highly susceptible to imidacloprid was performed by the same method as described above, and the results thereof are shown in Table 43.
(§4) Further, for the origin of test pests, bugs collected outdoors within the Kumamoto prefecture in 2007 as the drug resistant Nilaparvata lugens, and bugs collected within the Kagoshima prefecture and then successively reared indoors for a long time as the imidacloprid susceptible populations of Nilaparvata lugens were used.

[2] = system: Nilaparvata lugens exhibiting drug resistance to imidacloprid; details: soil irrigation
Description: Test Example 18 Pest Control Test of Drug-Resistant Nilaparvata lugens
as §3, §2, §4

Musca domestica = assay: Pest control test of Musca domestica adults, sucrose pledget; details: 50 ppm in 40% sucrose liquid; four days after release
Description: Test Example 21 Pest Control Test of Musca domestica
A drug solution of the compound of the present invention, which had been adjusted to be 50 ppm with a 40% sucrose liquid, was adsorbed on a pledget, and the pledget was put into a vial. Two adults reared indoors were released thereto. Thereafter, the adults were left to stand indoors at room temperature of 25° C. […] When two adults were all agonized in death, it was judged to be effective.

Plutella xylostella = Plutella xylostella control test, cabbage leaf disk foliar spray; details: Plutella xylostella, 72 h; foliar treatment at 100 ppm; second instar larvae; three days after release; read-out: mortality of larvae
Description: Test Example 1 Plutella xylostella Control Test
as §1, with “5.0” for “2.0”, “cabbage” for “cucumber”, “second” for “first”
mortality larvae(%)={number of dead larvae/(number of survived larvae+number of dead larvae)}×100

[3] = system: Frankliniella occidentalis; assay: Pest control test of Frankliniella occidentalis, kidney bean leaf disk foliar spray; details: Frankliniella occidentalis, 72 h; foliar treatment at 100 ppm; first instar larvae; three days after release; read-out: mortality of larvae
Excerpt: Test Example 7 Pest Control Test of Frankliniella occidentalis
as §1, with “2.8” for “2.0”, “kidney bean” for “cucumber”
as §2

[4] = system: Trigonotylus caelestialium; assay: Pest control test of Trigonotylus caelestialium, wheat seedling dipping; details: Trigonotylus caelestialium, 72 h; dipping treatment of the drug solution at 10 ppm; three days after treatment; read-out: mortality of larvae
Excerpt: Test Example 8 Pest Control Test of Trigonotylus caelestialium
Wheat seedling leaves and stems four days after the dissemination of seedlings were dipped for 30 seconds in a drug solution of the compound of the present invention at a predetermined concentration, which had been prepared so as to be a 50% acetone water (0.05% Tween20 available). After an air drying process, the wheat seedling leaves and stems were placed into a glass tube, and two second instar larvae of Trigonotylus caelestialium were released to the same glass tube. After the larvae were released, the tube was lidded to leave the larvae to stand in a thermostatic chamber at 25° C. In order to supply water to the wheat during the test, water was given to the wheat from the bottom of the glass tube.
as §2

| SMILES | activity against adults (effective when two adults were all agonized in death) (Musca domestica) | further results |
| --- | --- | --- |
| O=C(/N=c1\ccccn1Cc1ccc(Cl)nc1)OCC(F)(F)F [Compound 1-17, 2,2,2-trifluoroethyl-[1-((6-chloropyridin-3-yl)methyl)pyridin-(2H)-ylidene]carbamate] | – | mortality at 100 ppm (Aphis gossypii): ≥ 80%; mortality at 500 ppm (Aphis gossypii; foliar treatment at 500 ppm): ≥ 80% |
| FC(F)(Cl)C(=S)N=c1ccccn1Cc1ccc(Cl)nc1 [Compound 1-22] | all the adults are agonized in death | Insecticidal effects against Nilaparvata lugens (mortality of larvae %), Susceptible populations three days after the treatment ([1]; Rate 0.05 mg/pot): 75%; Insecticidal effects against Nilaparvata lugens (mortality of larvae %), Drug resistant populations three days after the treatment ([2]; Rate 0.05 mg/pot, drug resistant populations): 60%; insecticidal effects against drug resistant Nilaparvata lugens ([2]; imidacloprid-resistant): high insecticidal effects; mortality of larvae against drug resistant populations compared with susceptible populations of Nilaparvata lugens ([2]; imidacloprid-resistant vs susceptible): equivalent mortality of larvae |
| CCN=C(N=c1ccccn1Cc1ccc(Cl)nc1)C(F)(F)F [Compound 1-43] | all the adults are agonized in death | – |
| CCCN=C(N=c1ccccn1Cc1ccc(Cl)nc1)C(F)(F)F [Compound 1-44] | all the adults are agonized in death | – |
| FC(F)(F)C(=NC1CC1)N=c1ccccn1Cc1ccc(Cl)nc1 [Compound 1-50] | all the adults are agonized in death | – |
| C#CCN=C(N=c1ccccn1Cc1ccc(Cl)nc1)C(F)(F)F [Compound 1-56] | all the adults are agonized in death | – |
| FC(F)(F)C(=NCc1ccccc1)N=c1ccccn1Cc1ccc(Cl)nc1 [Compound 1-72] | all the adults are agonized in death | – |
| FC(F)(F)C(=NCCOc1ccccc1)N=c1ccccn1Cc1ccc(Cl)nc1 [Compound 1-114] | all the adults are agonized in death | – |
| FC(F)(F)C(=NCc1ccccn1)N=c1ccccn1Cc1ccc(Cl)nc1 [Compound 1-118] | all the adults are agonized in death | – |
| FC(F)(F)C(=NCc1cccnc1)N=c1ccccn1Cc1ccc(Cl)nc1 [Compound 1-119] | all the adults are agonized in death | – |
| CSCCN=C(N=c1ccccn1Cc1ccc(Cl)nc1)C(F)(F)F [Compound 1-150] | all the adults are agonized in death | – |
| CON=C(N=c1ccccn1Cc1ccc(Cl)nc1)C(F)(F)F [Compound 1-500] | all the adults are agonized in death | – |
| C=CCON=C(/N=c1\ccccn1Cc1ccc(Cl)nc1)C(F)(F)F [Compound 1-507, N′-(aryloxy)-N-[1-((6-chloropyridin-3-yl)methyl)pyridin-2(1H)-ylidene]-2,2,2-trifluoroacetimidamide] | – | mortality at 20 ppm (Aphis gossypii): ≥ 80%; mortality at 100 ppm (Aphis gossypii): ≥ 80%; mortality at 100 ppm (Plutella xylostella): ≥ 80% |
| C#CCC(=O)ON=C(N=c1ccccn1Cc1ccc(Cl)nc1)C(F)(F)F [Compound 1-518] | all the adults are agonized in death | – |
| Cc1ccc(S(=O)(=O)ON=C(N=c2ccccn2Cc2ccc(Cl)nc2)C(F)(F)F)cc1 [Compound 1-531] | all the adults are agonized in death | – |
| CCCNC(=O)O/N=C(/N=c1\ccccn1Cc1ccc(Cl)nc1)C(F)(F)F [Compound 1-534, N-[1-((6-chloropyridin-3-yl)methyl)pyridin-2(1H)-ylidene]-2,2,2-trifluoro-N′-((propylcarbamoyl)oxy)acetimidamide] | – | mortality at 100 ppm (Plutella xylostella): ≥ 80% |

| SMILES | activity against adults (effective when two adults were all agonized in death) (Musca domestica) | further results |
| --- | --- | --- |
| FC(F)(F)C(=S)N=c1ccccn1Cc1cnc(Cl)s1 [Compound 2-20] | all the adults are agonized in death | – |
| O=C(/N=c1\ccccn1Cc1ccc(F)nc1)C(F)F [Compound 3-3, 2,2-difluoro-N-[1-((6-fluoropyridin-3-yl)methyl)pyridin-2(1H)-ylidene]acetamide] | all the adults are agonized in death | mortality at 20 ppm (Aphis gossypii): ≥ 80%; mortality at 100 ppm (Aphis gossypii): ≥ 80%; mortality at 100 ppm [3]: ≥ 80%; mortality at 10 ppm [4]: ≥ 80%; mortality at 100 ppm (Plutella xylostella): ≥ 80% |
| O=C(N=c1ccccn1Cc1ccc(F)nc1)C(F)(F)Cl [Compound 3-4] | all the adults are agonized in death | – |
| O=C(N=c1ccccn1Cc1ccc(F)nc1)C(F)(F)C(F)(F)F [Compound 3-5] | all the adults are agonized in death | – |
| O=C(N=c1ccccn1Cc1ccc(Br)nc1)C(F)F [Compound 4-3] | all the adults are agonized in death | – |
| O=C(N=c1ccccn1Cc1ccc(Br)nc1)C(F)(F)Cl [Compound 4-4] | all the adults are agonized in death | – |
| O=C(N=c1ccccn1Cc1ccc(Br)nc1)C(F)(F)C(F)(F)F [Compound 4-5] | all the adults are agonized in death | – |
| O=C(N=c1ccccn1Cc1cnc(Cl)c(F)c1)C(F)(F)Cl [Compound 5-4] | all the adults are agonized in death | – |
| O=C(N=c1ccccn1Cc1cnc(Cl)c(F)c1)C(F)(F)C(F)(F)F [Compound 5-5] | all the adults are agonized in death | – |
| O=C(N=c1ccccn1Cc1cnc(Cl)nc1)C(F)F [Compound 6-3] | all the adults are agonized in death | – |
| O=C(N=c1ccccn1Cc1cnc(Cl)nc1)C(F)(F)Cl [Compound 6-4] | all the adults are agonized in death | – |
| O=C(N=c1ccccn1Cc1cnc(Cl)nc1)C(F)(F)C(F)(F)F [Compound 6-5] | all the adults are agonized in death | – |
| O=C(/N=c1\ncccn1Cc1ccc(Cl)nc1)C(F)(F)F [Compound 190-2, N-[1-((6-chloropyridin-3-yl)methyl)pyrimidin-2(1H)-ylidene]-2,2,2-trifluoroacetamide] | – | mortality at 20 ppm (Aphis gossypii): ≥ 80%; mortality at 100 ppm (Aphis gossypii): ≥ 80% |
| O=C(N=c1cccnn1Cc1ccc(Cl)nc1)C(F)(F)F [Compound 223-2] | all the adults are agonized in death | – |
| O=[N+]([O-])NC1=NCCN1Cc1ccc(Cl)nc1 [Imidacloprid] | – | Insecticidal effects against Nilaparvata lugens (mortality of larvae %), Susceptible populations three days after the treatment ([1]; Rate 0.01 mg/pot): 73%; Insecticidal effects against Nilaparvata lugens (mortality of larvae %), Susceptible populations three days after the treatment ([1]; Rate 0.05 mg/pot): 90% |
